Literature values, collected in US20040265230A1, “Compositions and methods for diagnosing and treating colon cancers” (priority 2003, published 2004).

Tests used:
tumor cells = settings: read-out: concentration causing 50% growth inhibition of tumor cells
[1] = test system: lymphoid, myeloid, colon, and prostate cancer cells; settings: prostate xenografts in nude mice

IC50 (tumor cells): 60 nM
SMILES: CN1CC[C@H](c2c(O)cc(O)c3c(=O)cc(-c4ccccc4Cl)oc23)[C@H](O)C1 [Flavopiridol]
inhibition of cancer cells grown in vivo as tumor xenografts [1]: inhibits
